Measurements reported in patent publication US20250368649A1, “TETRAHYDROPYRIDOPYRIMIDINE PAN-KRAS INHIBITORS” (Mirati Therapeutics, Inc., priority 2022, published 2025).

Legend:
ASPC1 cells = assay: Inhibition of KRas-mediated phosphorylation of ERK (Cisbio HTRF pERK), ASPC1 cells; type: cell-based; settings: Homo sapiens, AsPC-1 cells; for IC50: ASPC1, 3 h, 3 hr compound incubation, Cisbio pERK HTRF; for inhibition at 0.1 µM: ASPC1, single point at 100 nM, 3 hrs compound incubation
MKN1 cells = assay: Inhibition of KRas-mediated phosphorylation of ERK (Cisbio HTRF pERK), MKN1 cells; type: cell-based; settings: Homo sapiens, MKN-1, 3 hour compound incubation, Cisbio pERK HTRF
Method in brief: (§1)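 Phospho-ERK signal measured by HTRF after cells had been plated at 6,000/well in RPMI supplemented with 10% FBS on day 1.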

KRas G12R = KRas G12R (Homo sapiens, UniProt P01116, G12R); assay: biochemical; settings: Binding to KRas (IC50 nM) G12R, TR-FRET displacement, KRas G12R
Chain of KRas G12R (P01116 1-169 isoform P01116-2 G12R): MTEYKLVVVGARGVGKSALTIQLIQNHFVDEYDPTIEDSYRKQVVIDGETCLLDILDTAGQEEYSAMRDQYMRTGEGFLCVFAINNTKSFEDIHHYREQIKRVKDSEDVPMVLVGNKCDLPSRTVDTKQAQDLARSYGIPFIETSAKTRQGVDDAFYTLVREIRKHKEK

H358 cells = assay: Inhibition of KRas-mediated phosphorylation of ERK (Cisbio HTRF pERK), H358 cells; type: cell-based; settings: Homo sapiens; for inhibition at 0.1 µM: NCI-H358, single point at 100 nM, 3 hrs compound incubation
A549 cells = assay: Inhibition of KRas-mediated phosphorylation of ERK (Cisbio HTRF pERK), A549 cells; type: cell-based; settings: Homo sapiens; for inhibition at 0.1 µM: single point at 100 nM, 3 hrs compound incubation
KRas G12V = KRas G12V (Homo sapiens, UniProt P01116, G12V); assay: biochemical; settings: Binding to KRas (IC50 nM) G12V, TR-FRET displacement, KRas G12V
Chain of KRas G12V (P01116 1-169 isoform P01116-2 G12V): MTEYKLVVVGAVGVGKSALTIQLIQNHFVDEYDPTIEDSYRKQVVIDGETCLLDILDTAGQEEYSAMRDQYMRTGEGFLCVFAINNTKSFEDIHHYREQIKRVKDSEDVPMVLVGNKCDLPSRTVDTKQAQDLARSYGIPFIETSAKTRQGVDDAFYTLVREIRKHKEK

H727 cells = assay: Inhibition of KRas-mediated phosphorylation of ERK (Cisbio HTRF pERK), H727 cells; type: cell-based; settings: Homo sapiens; for IC50: NCI-H727, 3 h, 3 hr compound incubation, Cisbio pERK HTRF; for inhibition at 0.1 µM: NCI-H727, single point at 100 nM, 3 hrs compound incubation
PSN1 cells = assay: Inhibition of KRas-mediated phosphorylation of ERK (Cisbio HTRF pERK), PSN1 cells; type: cell-based; settings: Homo sapiens, PSN1, 3 h, 3 hour compound incubation, Cisbio pERK HTRF
Method in brief: as §1

KRas G12D = KRas G12D (Homo sapiens, UniProt P01116, G12D); assay: biochemical; settings: Binding to KRas (IC50 nM) G12D, TR-FRET displacement, KRas G12D
Chain of KRas G12D (P01116 1-169 isoform P01116-2 G12D): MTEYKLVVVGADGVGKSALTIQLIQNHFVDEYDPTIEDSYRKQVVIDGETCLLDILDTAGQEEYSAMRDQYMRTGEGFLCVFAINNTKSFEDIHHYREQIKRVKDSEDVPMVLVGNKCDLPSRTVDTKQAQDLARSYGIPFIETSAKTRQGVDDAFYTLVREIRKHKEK

H460 cells = assay: Inhibition of KRas-mediated phosphorylation of ERK (Cisbio HTRF pERK), H460 cells; type: cell-based; settings: Homo sapiens; for inhibition at 0.1 µM: NCI-H460, single point at 100 nM, 3 hrs compound incubation
HCT116 cells = assay: Inhibition of KRas-mediated phosphorylation of ERK (Cisbio HTRF pERK), HCT116 cells; type: cell-based; settings: Homo sapiens; for inhibition at 0.1 µM: HCT-116, single point at 100 nM, 3 hrs compound incubation

Row | SMILES | IC50 (ASPC1 cells) | IC50 (MKN1 cells) | IC50 (KRas G12R) | IC50 (KRas G12V) | IC50 (H727 cells) | IC50 (PSN1 cells) | IC50 (KRas G12D) | IC50 (H358 cells; NCI-H358, 3 h, 3 hr compound incubation, Cisbio pERK HTRF) | IC50 (A549 cells; A549, 3 h, 3 hr compound incubation, Cisbio pERK HTRF) | IC50 (H460 cells; NCI-H460, 3 h, 3 hr compound incubation, Cisbio pERK HTRF) | IC50 (HCT116 cells; HCT-116, 3 h, 3 hr compound incubation, Cisbio pERK HTRF) | inhibition at 0.1 µM (H358 cells) | inhibition at 0.1 µM (A549 cells) | inhibition at 0.1 µM (H460 cells) | inhibition at 0.1 µM (HCT116 cells) | inhibition at 0.1 µM (ASPC1 cells) | inhibition at 0.1 µM (H727 cells)
1 | CCc1c(F)ccc2cc(O)cc(N3CCc4c(nc(OC[C@@]56CCCN5C[C@H](F)C6)nc4N4CCCn5nc(CC(=O)N(C)C)cc5C4)C3)c12 [Example 317, 2-(5-(7-(8-ethyl-7-fluoro-3-hydroxynaphthalen-1-yl)-2-(((2R,7aS)-2-fluorohexahydro-1H-pyrrolizin-7a-yl)methoxy)-5,6,7,8-tetrahydropyrido[3,4-d]pyrimidin-4-yl)-5,6,7,8-tetrahydro-4H-pyrazolo[1,5-a][1,4]diazepin-2-yl)-N,N-dimethylacetamide] | 185 nM | 63 nM | 4 nM | 4 nM | 327 nM | > 10000 nM | 5 nM | – | – | – | – | 19% | 12% | 1% | 13% | – | –
2 | CCc1c(F)ccc2cc(O)cc(N3CCc4c(nc(OC[C@@]56CCCN5C[C@H](F)C6)nc4N4CCCn5nc(CNS(=O)(=O)N(C)C)cc5C4)C3)c12 [Example 336, 7-(8-ethyl-7-fluoro-3-hydroxy-1-naphthyl)-2-(((2R,7aS)-2-fluorotetrahydro-1H-pyrrolizin-7a(5H)-yl)methoxy)-4-(2-((dimethylsulfamoyl)amino)methyl-7,8-dihydro-4H-pyrazolo[1,5-a][1,4]diazepin-5(6H)-yl)-6,8-dihydro-5H-pyrido[3,4-d]pyriimidine] | 289 nM | 531 nM | 7 nM | 8 nM | 517 nM | > 10000 nM | 3 nM | – | – | – | – | -26% | -24% | 1% | -11% | – | –
3 | CCc1c(F)ccc2cc(O)cc(N3CCc4c(nc(OC[C@@]56CCCN5C[C@H](F)C6)nc4N4CCCn5nc(CNC(=O)NC)cc5C4)C3)c12 [Example 352, 1-((5-(7-(8-ethyl-7-fluoro-3-hydroxynaphthalen-1-yl)-2-(((2R,7aS)-2-fluorohexahydro-1H-pyrrolizin-7a-yl)methoxy)-5,6,7,8-tetrahydropyrido[3,4-d]pyrimidin-4-yl)-5,6,7,8-tetrahydro-4H-pyrazolo[1,5-a][1,4]diazepin-2-yl)methyl)-3-methylurea] | 1820 nM | 1110 nM | 2 nM | 2 nM | 1950 nM | > 10000 nM | < 2 nM | – | – | – | – | -7% | -15% | -4% | -2% | – | –
4 | CCc1c(F)ccc2cc(O)cc(N3CCc4c(nc(OC[C@@]56CCCN5C[C@H](F)C6)nc4N4CCCn5nc(CNC(C)=O)cc5C4)C3)c12 [Example 353, N-((5-(7-(8-ethyl-7-fluoro-3-hydroxynaphthalen-1-yl)-2-(((2R,7aS)-2-fluorohexahydro-1H-pyrrolizin-7a-yl)methoxy)-5,6,7,8-tetrahydropyrido[3,4-d]pyrimidin-4-yl)-5,6,7,8-tetrahydro-4H-pyrazolo[1,5-a][1,4]diazepin-2-yl)methyl)acetamide] | 400 nM | 516 nM | 4 nM | 3 nM | 561 nM | > 10000 nM | < 2 nM | – | – | – | – | -10% | 26% | -15% | 6% | – | –
5 | CCc1c(F)ccc2cc(O)cc(N3CCc4c(nc(OC[C@@]56CCCN5C[C@H](F)C6)nc4N4CCCn5nc(C(=O)N6[C@@H]7CNC[C@H]6C7)cc5C4)C3)c12 [Example 499, (1R,5S)-3,6-diazabicyclo[3.1.1]heptan-6-yl(5-(7-(8-ethyl-7-fluoro-3-hydroxynaphthalen-1-yl)-2-(((2R,7aS)-2-fluorohexahydro-1H-pyrrolizin-7a-yl)methoxy)-5,6,7,8-tetrahydropyrido[3,4-d]pyrimidin-4-yl)-5,6,7,8-tetrahydro-4H-pyrazolo[1,5-a][1,4]diazepin-2-yl)methanone] | 41 nM | 186 nM | < 2 nM | < 2 nM | 168 nM | > 10000 nM | < 2 nM | – | – | – | – | 57% | 25% | 6% | 11% | 47% | 37%

More lines, main results first:

Row | IC50 (ASPC1 cells) | IC50 (MKN1 cells) | IC50 (KRas G12R) | IC50 (KRas G12V) | IC50 (H727 cells) | IC50 (PSN1 cells) | IC50 (KRas G12D) | IC50 (H358 cells; NCI-H358, 3 h, 3 hr compound incubation, Cisbio pERK HTRF) | IC50 (A549 cells; A549, 3 h, 3 hr compound incubation, Cisbio pERK HTRF) | IC50 (H460 cells; NCI-H460, 3 h, 3 hr compound incubation, Cisbio pERK HTRF) | IC50 (HCT116 cells; HCT-116, 3 h, 3 hr compound incubation, Cisbio pERK HTRF) | SMILES | inhibition at 0.1 µM (H358 cells) | inhibition at 0.1 µM (A549 cells) | inhibition at 0.1 µM (H460 cells) | inhibition at 0.1 µM (HCT116 cells) | inhibition at 0.1 µM (ASPC1 cells) | inhibition at 0.1 µM (H727 cells)
6 | 5 nM | 4.2 nM | < 2 nM | < 2 nM | 6 nM | 1420 nM | < 2 nM | 5 nM | 20 nM | 41 nM | 214 nM | CCc1c(F)ccc2cc(O)cc(N3CCc4c(nc(OC[C@@]56CCCN5C[C@H](F)C6)nc4N4CCCn5nc(C(=O)NC)c(OC)c5C4)C3)c12 [Example 320, 5-(7-(8-ethyl-7-fluoro-3-hydroxynaphthalen-1-yl)-2-(((2R,7aS)-2-fluorohexahydro-1H-pyrrolizin-7a-yl)methoxy)-5,6,7,8-tetrahydropyrido[3,4-d]pyrimidin-4-yl)-3-methoxy-N-methyl-5,6,7,8-tetrahydro-4H-pyrazolo[1,5-a][1,4]diazepine-2-carboxamide] | 103% | 90% | 56% | 17% | 99% | 70%
7 | 105 nM | 10.9 nM | < 2 nM | 3 nM | 178 nM | > 10000 nM | < 2 nM | – | – | – | – | CCc1c(F)ccc2cc(O)cc(N3CCc4c(nc(OC[C@@]56CCCN5C[C@H](F)C6)nc4N4CCCn5nc(P(C)(C)=O)cc5C4)C3)c12 [Example 350, (5-(7-(8-ethyl-7-fluoro-3-hydroxynaphthalen-1-yl)-2-(((2R,7aS)-2-fluorotetrahydro-1H-pyrrolizin-7a(5H)-yl)methoxy)-5,6,7,8-tetrahydropyrido[3,4-d]pyrimidin-4-yl)-5,6,7,8-tetrahydro-4H-pyrazolo[1,5-a][1,4]diazepin-2-yl)dimethylphosphine oxide] | 76% | 23% | 44% | 10% | – | –
8 | 25 nM | 37.2 nM | < 2 nM | < 2 nM | 203 nM | > 10000 nM | < 2 nM | – | – | – | – | CCc1c(F)ccc2cc(O)cc(N3CCc4c(nc(OC[C@@]56CCCN5C[C@H](F)C6)nc4N4CCCn5nc(C(=O)N6CC7CC(C6)N(C)C7)cc5C4)C3)c12 (stereo partly drawn) [Example 500, (5-(7-(8-ethyl-7-fluoro-3-hydroxynaphthalen-1-yl)-2-(((2R,7aS)-2-fluorohexahydro-1H-pyrrolizin-7a-yl)methoxy)-5,6,7,8-tetrahydropyrido[3,4-d]pyrimidin-4-yl)-5,6,7,8-tetrahydro-4H-pyrazolo[1,5-a][1,4]diazepin-2-yl)(6-methyl-3,6-diazabicyclo[3.2.1]octan-3-yl)methanone] | 74% | 46% | 22% | 11% | 91% | 20%
9 | 23 nM | 41.2 nM | 2 nM | < 2 nM | 132 nM | > 10000 nM | < 2 nM | – | – | – | – | CCc1c(F)ccc2cc(O)cc(N3CCc4c(nc(OC[C@@]56CCCN5C[C@H](F)C6)nc4N4CCCn5nc(C(=O)N6CCC7CC6CN7C)cc5C4)C3)c12 (stereo partly drawn) [Example 501, (5-(7-(8-ethyl-7-fluoro-3-hydroxynaphthalen-1-yl)-2-(((2R,7aS)-2-fluorohexahydro-1H-pyrrolizin-7a-yl)methoxy)-5,6,7,8-tetrahydropyrido[3,4-d]pyrimidin-4-yl)-5,6,7,8-tetrahydro-4H-pyrazolo[1,5-a][1,4]diazepin-2-yl)(6-methyl-2,6-diazabicyclo[3.2.1]octan-2-yl)methanone] | 95% | 27% | 17% | 23% | 86% | 40%
